pIC50: −log10 of the molar value.

Format in all cases: tissue-based
In test [1] the target is Kappa-type opioid receptor (Cavia porcellus, UniProt P41144). In words: Binding to kappa opioid receptor by using [3H]U-69593 as radioligand in guinea pig cerebellum.
Test [2] addresses Mu-type opioid receptor (Cavia porcellus) (UniProt P97266). The test is described as follows: Binding to mu opioid receptor by using [3H]DAMGO as radioligand in guinea pig brain minus cerebellum at 10 uM.
In the next test the target is Mu-type opioid receptor (Cavia porcellus, UniProt P97266). The test is described as follows: Binding to mu opioid receptor by using [3H]DAMGO as radioligand in guinea pig brain minus cerebellum.
Chain of Mu-type opioid receptor (P97266 whole entry): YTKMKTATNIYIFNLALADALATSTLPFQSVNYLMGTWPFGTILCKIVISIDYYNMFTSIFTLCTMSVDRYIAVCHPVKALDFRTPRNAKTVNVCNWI

Chain of Kappa-type opioid receptor (P41144 whole entry): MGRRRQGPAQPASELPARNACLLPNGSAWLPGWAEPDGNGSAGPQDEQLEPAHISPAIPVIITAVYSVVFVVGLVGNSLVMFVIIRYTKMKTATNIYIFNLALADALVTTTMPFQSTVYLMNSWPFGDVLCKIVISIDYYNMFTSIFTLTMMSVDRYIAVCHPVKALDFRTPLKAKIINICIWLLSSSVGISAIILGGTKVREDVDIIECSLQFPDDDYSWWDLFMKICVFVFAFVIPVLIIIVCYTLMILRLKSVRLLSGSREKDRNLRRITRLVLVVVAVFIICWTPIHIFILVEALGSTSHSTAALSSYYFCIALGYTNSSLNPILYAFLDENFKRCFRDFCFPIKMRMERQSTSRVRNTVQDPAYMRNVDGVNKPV
Chain of Mu-type opioid receptor (Cavia porcellus) (P97266 whole entry): as the sequence (P97266 whole entry) above

On to `CN1CC[C@]23c4c5ccc(-c6cc7ccccc7s6)c4O[C@H]2[C@@H](O)C=C[C@H]3[C@H]1C5`, for which the pIC50 (as a rule, the negative decadic logarithm of the IC50, by convention in mol/L) in test [1] is 3.90. The inhibition (usually the drop in the measured response relative to a control, in per cent) in test [2] is 41%.

`CN1CC[C@]23c4c5ccc(-c6ccsc6)c4O[C@H]2[C@@H](O)C=C[C@H]3[C@H]1C5`: the pIC50 in test [1] is 4.82; at Mu-type opioid receptor, 5.48.

Take `CC(=O)c1ccc2c3c1O[C@H]1[C@@H](O)C=C[C@H]4[C@@H](C2)N(C)CC[C@@]341`: the figures for the pIC50 (in test [1]; at Mu-type opioid receptor) were 5.29 and 6.19, respectively.

With `CN1CC[C@]23c4c5ccc(-c6ccoc6)c4O[C@H]2[C@@H](O)C=C[C@H]3[C@H]1C5`, the pIC50 in test [1] is 6.04; at Mu-type opioid receptor, 6.70.

Regarding `CN1CC[C@]23c4c5ccc(-c6cccs6)c4O[C@H]2[C@@H](O)C=C[C@H]3[C@H]1C5`, the pIC50 in test [1] was 4.60. For the same molecule, in test [2], the inhibition is 49%.

On to `CN1CC[C@]23c4c5ccc(-c6ccccc6)c4O[C@H]2[C@@H](O)C=C[C@H]3[C@H]1C5`, for which, in test [1], the pIC50 was 4.12. In test [2], this molecule registered an inhibition of 43%.

With `CN1CC[C@]23c4c5ccc(-c6ccco6)c4O[C@H]2[C@@H](O)C=C[C@H]3[C@H]1C5`, the pIC50 in test [1] is 5.02; on Mu-type opioid receptor, 5.59.

For `CN1CC[C@]23c4c5cccc4O[C@H]2[C@@H](O)C=C[C@H]3[C@H]1C5`, the pIC50 in test [1] was 4.96; at Mu-type opioid receptor, 6.28.

As for `Cc1ccc2c3c1O[C@H]1[C@@H](O)C=C[C@H]4[C@@H](C2)N(C)CC[C@@]341`, the pIC50 in test [1] was 4.44; on Mu-type opioid receptor, 5.35.

In the case of `CN1CC[C@]23c4c5ccc(OS(=O)(=O)C(F)(F)F)c4O[C@H]2[C@@H](O)C=C[C@H]3[C@H]1C5`, the values for the pIC50 (in test [1]; on Mu-type opioid receptor) were 3.95 and 5.19, respectively.
